Patent US20190328822A1, “METHODS AND COMPOSITIONS FOR PREVENTING OR TREATING DOMINANT OPTIC ATROPHY” (STEALTH BIOTHERAPEUTICS CORP, priority 2014, published 2019)
Non-standard residues stand in square brackets, D forms with d. No end group written: not given here.

Tests used:
[1] = tested on: plasma membrane of several mammalian cell types; conditions: energy-independent manner; cited from earlier work
reactive oxygen species = conditions: cited from earlier work
[2] = cited from earlier work
LHON patients [3] = conditions: cited from earlier work
LHON patients [4] = conditions: 85 LHON patients, 900 mg/d for 24 weeks; cited from earlier work
[5] = tested on: Human subjects at risk of having, suspected of having, or diagnosed as having DOA; test: Treatment and prevention of DOA in human subjects, ophthalmic solution (Example 2); type: in vivo; conditions: 1 drop of 1%, 3%, or 5% ophthalmic solution three times per day for 18 months
Description: Human subjects at risk of having (e.g., diagnosed with an OPA1 gene mutation, but who are not yet symptomatic, e.g., no visual impairment), suspected of having, or diagnosed as having DOA are administered a therapeutically effective amount of an aromatic-cationic peptide of the present technology, such as D-Arg-2′,6′-Dmt-Lys-Phe-NH2, alone or in conjunction with one or more additional therapeutic agents. Subjects will receive 1 drop of 1%, 3%, or 5% D-Arg-2′,6′-Dmt-Lys-Phe-NH2 ophthalmic solution in a randomly selected study eye three times per day for 18 months. The remaining eye of these subjects serves as the untreated internal control. The patients in the control group will be administered 1 drop of vehicle solution in one of their eyes (fellow control eye) three times per day over the course of the 18 month study. Subjects are assessed weekly for signs and symptoms associated with DOA according to one or more criteria described herein (e.g., one or more of visual loss, optic nerve atrophy, palor of the neuroretianl rim, presence of temporal pigmentary grey cresent, thinning of the fiber layer at the optic nerve rim, papillary excavation, scotoma, changes in color vision, etc.).

mu-opioid receptor = mu-opioid receptor (Homo sapiens, UniProt P35372); test: mu-opioid receptor agonist activity
Chain of mu-opioid receptor (P35372 whole entry, species assumed): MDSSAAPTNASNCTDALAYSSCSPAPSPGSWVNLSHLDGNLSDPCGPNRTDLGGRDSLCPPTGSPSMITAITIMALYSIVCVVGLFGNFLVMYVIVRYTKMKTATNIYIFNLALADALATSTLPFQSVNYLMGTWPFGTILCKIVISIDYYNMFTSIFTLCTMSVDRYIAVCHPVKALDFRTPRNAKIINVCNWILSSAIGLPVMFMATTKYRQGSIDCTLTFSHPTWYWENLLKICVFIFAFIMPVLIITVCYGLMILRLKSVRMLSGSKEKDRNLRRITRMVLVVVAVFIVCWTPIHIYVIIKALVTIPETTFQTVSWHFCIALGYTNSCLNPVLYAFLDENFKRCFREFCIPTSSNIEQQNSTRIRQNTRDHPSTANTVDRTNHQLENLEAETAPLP

2′,6′-Dmt-D-Arg-Phe-Lys-NH2
penetration of the plasma membrane [1]: readily penetrates

Cc1c(C)c2c(c(C)c1O)CCC(C)(C(=O)O)O2 (centres unmarked) [Trolox]
protective effects in vitro (reactive oxygen species): modest protective effects

COC1=C(OC)C(=O)C(C/C=C(\C)CC/C=C(\C)CC/C=C(\C)CC/C=C(\C)CC/C=C(\C)CC/C=C(\C)CC/C=C(\C)CC/C=C(\C)CC/C=C(\C)CCC=C(C)C)=C(C)C1=O [coenzyme Q-10]
protective effects in vitro (reactive oxygen species): modest protective effects
delivery crossing lipid membranes to mitochondria ([2]; exogenous): poor delivery

N[C@@H](CCC(=O)N[C@@H](CS)C(=O)NCC(=O)O)C(=O)O [glutathione]
protective effects in vitro (reactive oxygen species): modest protective effects

COC1=C(OC)C(=O)C(CCCCCCCCCCO)=C(C)C1=O [idebenone]
diameter of the central scotomas after treatment (LHON patients [3]; one 11778/ND4 LHON patient, from about 20 degrees): less than 5 degrees
recovery of visual acuity, color vision, and visual fields (LHON patients [3]; seven LHON patients, about 450 mg/d): showed recovery of visual acuity, color vision, and visual fields
final visual acuity vs placebo group (LHON patients [4]): better final visual acuity than the placebo group
delivery to mitochondria ([2]; compared with coenzyme Q10): higher delivery to mitochondria
efficiency in crossing the blood-brain barrier ([2]; compared with coenzyme Q10): higher efficiency in crossing the blood-brain barrier

D-Arg-2′,6′-dimethyltyrosine-Lys-Phe-NH2 [D-Arg-2′,6′-Dmt-Lys-Phe-NH2]
onset and severity of the symptoms of DOA [5]: prevent the onset of, delay the onset of, and/or reduce the severity of the symptoms of DOA
mu-opioid receptor agonist activity (mu-opioid receptor): does not have mu-opioid receptor agonist activity

F[dR]FK-NH2
mu-opioid receptor agonist activity (mu-opioid receptor): does not have mu-opioid receptor agonist activity

Tyr-D-Arg-Phe-Lys-NH2
mu-opioid receptor agonist activity (mu-opioid receptor): has mu-opioid receptor agonist activity
